Measured values taken from patent publication US9434743B2, “Indazole derivatives” (TAKEDA PHARMACEUTICAL COMPANY LIMITED, priority 2012, dated 2016).
pIC50: −log10 of the molar value.

Key:
human MetAP2 enzyme [1] = biological target: T1, human MetAP2 enzyme (Homo sapiens, UniProt P50579); experiment: MetAP2 enzyme assay, enzyme complexed with cobalt ions; details: MetAP2 Co pIC50, MetAP2 enzyme complexed with cobalt ions; Met-AMC substrate at Km
human MetAP2 enzyme [2] = biological target: T1, human MetAP2 enzyme; experiment: MetAP2 enzyme assay, enzyme complexed with manganese ions; details: MetAP2 Mn pIC50, MetAP2 enzyme complexed with manganese ions; Met-AMC substrate at Km

T1 sequence (P50579 whole entry): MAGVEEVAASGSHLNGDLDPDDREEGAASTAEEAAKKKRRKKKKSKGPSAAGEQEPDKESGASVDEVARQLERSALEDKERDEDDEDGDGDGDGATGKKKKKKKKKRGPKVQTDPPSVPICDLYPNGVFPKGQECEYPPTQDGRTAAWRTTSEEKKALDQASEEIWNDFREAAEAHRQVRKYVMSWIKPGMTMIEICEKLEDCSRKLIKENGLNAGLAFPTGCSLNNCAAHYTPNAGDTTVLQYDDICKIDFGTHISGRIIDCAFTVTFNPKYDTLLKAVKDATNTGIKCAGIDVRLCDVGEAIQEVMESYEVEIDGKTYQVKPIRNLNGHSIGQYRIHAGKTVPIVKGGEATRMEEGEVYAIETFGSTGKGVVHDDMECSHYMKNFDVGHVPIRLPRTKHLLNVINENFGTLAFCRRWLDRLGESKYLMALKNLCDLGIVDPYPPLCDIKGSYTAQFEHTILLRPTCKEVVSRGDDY

pIC50 (human MetAP2 enzyme [1])	pIC50 (human MetAP2 enzyme [2])	Structure (SMILES)
7.40	7.80	FC(F)(F)c1cc(-c2cccc3[nH]ccc23)c2cn[nH]c2c1 [Example 81, 4-(1H-indol-4-yl)-6-(trifluoromethyl)-1H-indazole]
7.10	8.20	Cn1cc(-c2cc(C(F)(F)F)cc3[nH]ncc23)c(CO)n1 [Example 220, (1-methyl-4-(6-(trifluoromethyl)-1H-indazol-4-yl)-1H-pyrazol-3-yl)methanol]
7.00	8.20	NS(=O)(=O)c1ccc(-c2cc(C(F)(F)F)cc3[nH]ncc23)cc1Cl [Example 343, 2-chloro-4-(6-(trifluoromethyl)-1H-indazol-4-yl)benzenesulfonamide]
6.80	8.20	CN1CCN(C(=O)c2c[nH]c(=O)c(-c3cc(C(F)(F)F)cc4[nH]ncc34)c2)CC1 [Example 297, 5-(4-methylpiperazine-1-carbonyl)-3-(6-(trifluoromethyl)-1H-indazol-4-yl)pyridin-2(1H)-one]
5.40	7.10	NC(=O)c1cc(F)ccc1-c1cc(C(F)(F)F)cc2[nH]ncc12 [Example 203, 5-fluoro-2-(6-(trifluoromethyl)-1H-indazol-4-yl)benzamide]
6.50	7.40	CNS(=O)(=O)c1cccc(-c2cc(C(F)(F)F)cc3[nH]ncc23)c1 [Example 104, N-methyl-3-(6-(trifluoromethyl)-1H-indazol-4-yl)benzenesulfonamide]
6.70	7.90	COc1nc(Cl)ccc1-c1cc(C(F)(F)F)cc2[nH]ncc12 [Example 392, 4-(6-chloro-2-methoxypyridin-3-yl)-6-(trifluoromethyl)-1H-indazole]
7.50	8.30	COc1ncc(-c2cc(C(F)(F)F)cc3[nH]ncc23)cc1C(=O)N1CCN(C)CC1 [Example 288, (2-methoxy-5-(6-(trifluoromethyl)-1H-indazol-4-yl)pyridin-3-yl)(4-methylpiperazin-1-yl)methanone]
7.60	8.20	Cc1nc2[nH]cnc2cc1-c1cc(C(F)(F)F)cc2[nH]ncc12 [Example 195, 5-methyl-6-(6-(trifluoromethyl)-1H-indazol-4-yl)-3H-imidazo[4,5-b]pyridine]
5.80	7.50	O=C(c1ncc(-c2cc(C(F)(F)F)cc3[nH]ncc23)cn1)N1CCOCC1 [Example 294, morpholino(5-(6-(trifluoromethyl)-1H-indazol-4-yl)pyrimidin-2-yl)methanone]
7.20	8.00	Cc1cc(=O)n(C)cc1-c1cc(C(F)(F)F)cc2[nH]ncc12 [Example 403, 1,4-dimethyl-5-(6-(trifluoromethyl)-1H-indazol-4-yl)pyridin-2(1H)-one]
7.90	8.30	O=C1NCc2c1cccc2-c1cc(C(F)(F)F)cc2[nH]ncc12 [Example 141, 4-(6-(trifluoromethyl)-1H-indazol-4-yl)isoindolin-1-one]
7.40	7.90	Cc1nn(CCN)c(C)c1-c1cc(C(F)(F)F)cc2[nH]ncc12 [Example 176, 2-(3,5-dimethyl-4-(6-(trifluoromethyl)-1H-indazol-4-yl)-1H-pyrazol-1-yl)ethanamine]
6.70	7.70	Cn1cc(-c2cc(C(F)(F)F)cc3[nH]ncc23)c(N)n1 [Example 144, 1-methyl-4-(6-(trifluoromethyl)-1H-indazol-4-yl)-1H-pyrazol-3-amine]
6.10	7.60	Nc1nc(Cl)ncc1-c1cc(C(F)(F)F)cc2[nH]ncc12 [Example 191, 2-chloro-5-(6-(trifluoromethyl)-1H-indazol-4-yl)pyrimidin-4-amine]
7.40	8.10	O=C(NCCO)c1ccc(F)c(-c2cc(C(F)(F)F)cc3[nH]ncc23)c1 [Example 360, 4-fluoro-N-(2-hydroxyethyl)-3-(6-(trifluoromethyl)-1H-indazol-4-yl)benzamide]
7.30	8.40	Cc1[nH]c(=O)ccc1-c1cc(C(F)(F)F)cc2[nH]ncc12 [Example 389, 6-methyl-5-(6-(trifluoromethyl)-1H-indazol-4-yl)pyridin-2(1H)-one]
7.10	8.10	C[C@@H](O)CNc1ncc(-c2cc(C(F)(F)F)cc3[nH]ncc23)cn1 [Example 207, (R)-1-(5-(6-(trifluoromethyl)-1H-indazol-4-yl)pyrimidin-2-ylamino)propan-2-ol]
7.20	8.20	FC(F)(F)c1cc(-c2cnc(NC3CC3)nc2)c2cn[nH]c2c1 [Example 197, N-cyclopropyl-5-(6-(trifluoromethyl)-1H-indazol-4-yl)pyrimidin-2-amine]
6.40	7.40	NC(=O)c1ccc2ncc(-c3cc(C(F)(F)F)cc4[nH]ncc34)n2n1 [Example 276, 3-(6-(trifluoromethyl)-1H-indazol-4-yl)imidazo[1,2-b]pyridazine-6-carboxamide]

pIC50 (human MetAP2 enzyme [1])	pIC50 (human MetAP2 enzyme [2])	Structure (SMILES)
6.70	8.20	FC(F)(F)c1cc(-c2cnc3ncccn23)c2cn[nH]c2c1 [Example 151, 3-(6-(trifluoromethyl)-1H-indazol-4-yl)imidazo[1,2-a]pyrimidine]
7.40	7.90	COc1cc(C(=O)N2CCOCC2)ccc1-c1cc(C(F)(F)F)cc2[nH]ncc12 [Example 318, (3-methoxy-4-(6-(trifluoromethyl)-1H-indazol-4-yl)phenyl)(morpholino)methanone]
7.60	8.20	CCn1nc(C)c(-c2cc(C(F)(F)F)cc3[nH]ncc23)c1C [Example 168, 4-(1-ethyl-3,5-dimethyl-1H-pyrazol-4-yl)-6-(trifluoromethyl)-1H-indazole]
8.00	8.20	Cn1cc2c(-c3cc(C(F)(F)F)cc4[nH]ncc34)cccc2n1 [Example 15, 2′-methyl-6-(trifluoromethyl)-1H,2′H-4,4′-biindazole]
7.40	8.20	O=C1Cc2cc(-c3cc(C(F)(F)F)cc4[nH]ncc34)cnc2N1 [Example 238, 5-(6-(trifluoromethyl)-1H-indazol-4-yl)-1H-pyrrolo[2,3-b]pyridin-2(3H)-one]
6.00	7.80	CNC(=O)Cn1c(=O)c(-c2cc(C(F)(F)F)cc3[nH]ncc23)cn(C)c1=O [Example 301, N-methyl-2-(3-methyl-2,6-dioxo-5-(6-(trifluoromethyl)-1H-indazol-4-yl)-2,3-dihydropyrimidin-1(6H)-yl)acetamide]
6.80	8.20	FC(F)(F)c1cc(-c2cccc(-n3cccn3)c2)c2cn[nH]c2c1 [Example 69, 4-(3-(1H-pyrazol-1-yl)phenyl)-6-(trifluoromethyl)-1H-indazole]
7.80	8.50	CNC(=O)c1ccc(-c2cc(C(F)(F)F)cc3[nH]ncc23)cc1 [Example 117, N-methyl-4-(6-(trifluoromethyl)-1H-indazol-4-yl)benzamide]
6.70	7.40	Cc1nc(N)nc(C)c1-c1cc(C(F)(F)F)cc2[nH]ncc12 [Example 190, 4,6-dimethyl-5-(6-(trifluoromethyl)-1H-indazol-4-yl)pyrimidin-2-amine]
7.10	8.10	Cc1noc(C)c1-c1cc(C(F)(F)F)cc2[nH]ncc12 [Example 80, 3,5-dimethyl-4-(6-(trifluoromethyl)-1H-indazol-4-yl)isoxazole]
6.90	8.00	CN1CCN(C(=O)c2cc(-c3cc(C(F)(F)F)cc4[nH]ncc34)c(=O)n(C)c2)CC1 [Example 375, 1-methyl-5-(4-methylpiperazine-1-carbonyl)-3-(6-(trifluoromethyl)-1H-indazol-4-yl)pyridin-2(1H)-one]
7.40	7.80	COc1ccc(C(=O)NCCO)cc1-c1cc(C(F)(F)F)cc2[nH]ncc12 [Example 268, N-(2-hydroxyethyl)-4-methoxy-3-(6-(trifluoromethyl)-1H-indazol-4-yl)benzamide]
6.80	8.00	Nc1ncc(F)cc1-c1cc(C(F)(F)F)cc2[nH]ncc12 [Example 194, 5-fluoro-3-(6-(trifluoromethyl)-1H-indazol-4-yl)pyridin-2-amine]
7.40	8.10	Cc1nnc(-c2cccc(-c3cc(C(F)(F)F)cc4[nH]ncc34)c2)o1 [Example 37, 2-methyl-5-(3-(6-(trifluoromethyl)-1H-indazol-4-yl)phenyl)-1,3,4-oxadiazole]
7.20	8.00	COc1cc(C)c(-c2cc(C(F)(F)F)cc3[nH]ncc23)cn1 [Example 253, 4-(6-methoxy-4-methylpyridin-3-yl)-6-(trifluoromethyl)-1H-indazole]
6.30	7.60	O=C(Cn1cncn1)NCc1ccccc1-c1cc(C(F)(F)F)cc2[nH]ncc12 [Example 202, 2-(1H-1,2,4-triazol-1-yl)-N-(2-(6-(trifluoromethyl)-1H-indazol-4-yl)benzyl)acetamide]
7.00	8.10	CN(C)C(=O)c1ccc(-c2cc(C(F)(F)F)cc3[nH]ncc23)cc1 [Example 119, N,N-dimethyl-4-(6-(trifluoromethyl)-1H-indazol-4-yl)benzamide]
6.60	7.90	N#CCNC(=O)c1c[nH]c(=O)c(-c2cc(C(F)(F)F)cc3[nH]ncc23)c1 [Example 333, N-(cyanomethyl)-6-oxo-5-(6-(trifluoromethyl)-1H-indazol-4-yl)-1,6-dihydropyridine-3-carboxamide]
6.10	7.80	CN(C)C(=O)c1cc(-c2cc(C(F)(F)F)cc3[nH]ncc23)c(=O)n(C)c1 [Example 353, N,N,1-trimethyl-6-oxo-5-(6-(trifluoromethyl)-1H-indazol-4-yl)-1,6-dihydropyridine-3-carboxamide]
